Patent publication US7803808B2, “Production of polyketides and other natural products” (Wyeth LLC, priority 2004, dated 2010)
Values belong to the compound of their own block, whether it stands above or below them.

How the values were obtained:
cell proliferation = conditions: compared to rapamycin; Khaw et al., 1998; cited from earlier work
[1] = tested on: mixed lymphocyte reaction; conditions: Nishida et al., 1995; cited from earlier work
[2] = tested on: SF268 (SF-268, CNS) tumour cell line; experiment: Monolayer proliferation assay (modified propidium iodide), SF268; format: cell-based, human; conditions: 4 days incubation, mean of duplicate experiments
Experimental: (§1) In vitro evaluation of compounds for anticancer activity in a panel of 12 human tumour cell lines in a monolayer proliferation assay were carried out at the Oncotest Testing Facility, Institute for Experimental Oncology, Oncotest GmbH, Freiburg.
(§2) The Oncotest cell lines were established from human tumor xenografts as described by Roth et al. 1999. The origin of the donor xenografts was described by Fiebig et al. 1992. Other cell lines were either obtained from the NCI (H460, SF-268, OVCAR-3, DU145, MDA-MB-231, MDA-MB-468) or purchased from DSMZ, Braunschweig, Germany (LNCAP).
(§3) All cell lines, unless otherwise specified, are grown at 37° C. in a humidified atmosphere (95% air, 5% CO2) in a ‘ready-mix’ medium containing RPMI 1640 medium, 10% fetal calf serum, and 0.1 mg/mL gentamicin (PAA, Cölbe, Germany).
(§4) A modified propidium iodide assay was used to assess the effects of the test compound(s) on the growth of twelve human tumor cell lines (Dengler et al., 1995).
(§5) Briefly, cells were harvested from exponential phase cultures by trypsinization, counted and plated in 96 well flat-bottomed microtitre plates at a cell density dependent on the cell line (5-10.000 viable cells/well). After 24 h recovery to allow the cells to resume exponential growth, 0.01 mL of culture medium (6 control wells per plate) or culture medium containing 39-desmethoxyrapamycin were added to the wells. Each concentration was plated in triplicate. 39-Desmethoxyrapamycin was applied in two concentrations (0.001 mM and 0.01 mM). Following 4 days of continuous incubation, cell culture medium with or without 39-desmethoxyrapamycin was replaced by 0.2 mL of an aqueous propidium iodide (PI) solution (7 mg/L). To measure the proportion of living cells, cells were permeabilized by freezing the plates. After thawing the plates, fluorescence was measured using the Cytofluor 4000 microplate reader (excitation 530 nm, emission 620 nm), giving a direct relationship to the total number of viable cells.
(§6) Growth inhibition was expressed as treated/control×100 (% T/C) and are provided for a selection of cell lines. […]

[3] = tested on: 251L (GXF 251L, gastric) tumour cell line; experiment: Monolayer proliferation assay (modified propidium iodide), 251L; format: cell-based, human; conditions: 4 days incubation, mean of duplicate experiments
Experimental: as §1, §2, §3, §4
as §5, with “39-Desmethoxyrapamycin was applied in two concentrations (0.001 mM and 0.01 mM).” left out
as §6

[4] = tested on: H460 (NCl-H460, lung) tumour cell line; experiment: Monolayer proliferation assay (modified propidium iodide), H460; format: cell-based, human; conditions: 4 days incubation, mean of duplicate experiments
Experimental: as §1, §2, §3, §4, §5
Growth inhibition was expressed as treated/control×100 (% T/C) and are provided for a selection of cell lines. For active compounds, the average IC50 & IC70 values across the entire cell line panel examined were estimated by plotting compound concentration versus cell viability and are also provided.
In vitro evaluation of 17-desmethyl-39-desmethoxyrapamycin for anticancer activity in a panel of 12 human tumour cell lines in a monolayer proliferation assay was carried out as described above using a modified propidium iodide assay.

[5] = tested on: MCF7 (MCF-7, breast) tumour cell line; experiment: Monolayer proliferation assay (modified propidium iodide), MCF7; format: cell-based, human; conditions: 4 days incubation, mean of duplicate experiments
Experimental: as §1, §2, §3, §4, §5, §6

[6] = tested on: 394NL (MEXF 394NL, melanoma) tumour cell line; experiment: Monolayer proliferation assay (modified propidium iodide), 394NL; format: cell-based, human; conditions: 4 days incubation, mean of duplicate experiments
Experimental: as §1, §2, §3, §4
as §5, with “39-Desmethoxyrapamycin was applied in two concentrations (0.001 mM and 0.01 mM).” left out
as §6

[7] = tested on: OVCAR3 (OVCAR-3, ovarian) tumour cell line; experiment: Monolayer proliferation assay (modified propidium iodide), OVCAR3; format: cell-based, human; conditions: 4 days incubation, mean of duplicate experiments
Experimental: as §1, §2, §3, §4, §5, §6

[8] = tested on: DU145 (prostate, PTEN positive) tumour cell line; experiment: Monolayer proliferation assay (modified propidium iodide), DU145; format: cell-based, human; conditions: 4 days incubation, mean of duplicate experiments
Experimental: as §1, §2, §3, §4, §5, §6

[9] = tested on: LNCAP (prostate, PTEN negative) tumour cell line; experiment: Monolayer proliferation assay (modified propidium iodide), LNCAP; format: cell-based, human; conditions: 4 days incubation, mean of duplicate experiments
Experimental: as §1, §2, §3, §4
as §5, with “39-Desmethoxyrapamycin was applied in two concentrations (0.001 mM and 0.01 mM).” left out
as §6

[10] = tested on: 1138L (UXF 1138L, uterus) tumour cell line; experiment: Monolayer proliferation assay (modified propidium iodide), 1138L; format: cell-based, human; conditions: 4 days incubation, mean of duplicate experiments
Experimental: as §1, §2, §3, §4, §5, §6

[11] = tested on: panel of human tumour cell lines; experiment: Monolayer proliferation assay, mean across the cell line panel; format: cell-based; conditions: average across the cell lines tested; estimated from concentration versus cell viability
Experimental: as §1, §2, §3, §4, §5, §6

fungi = conditions: compared to rapamycin, cited from earlier work; for antifungal activities: Wong et al., 1998
FKBP12 PPlase = FKBP12 PPlase (Homo sapiens, UniProt P62942); conditions: compared to rapamycin; Box et al., 1995; cited from earlier work
murine splenic T cells = conditions: compared to rapamycin; Box et al., 1995; cited from earlier work
murine splenic B cells = conditions: compared to rapamycin; Box et al., 1995; cited from earlier work

FKBP12 PPlase, sequence (P62942 whole entry): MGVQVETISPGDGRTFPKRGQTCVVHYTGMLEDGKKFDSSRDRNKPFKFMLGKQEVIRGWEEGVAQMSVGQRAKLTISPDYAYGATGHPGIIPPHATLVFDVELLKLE

SMILES: CO[C@H]1C[C@@H]2CC[C@@H](C)[C@@](O)(O2)C(=O)C(=O)N2CC(O)C[C@H]2C(=O)O[C@H]([C@H](C)C[C@@H]2CC[C@@H](O)[C@H](OC)C2)CC(=O)[C@H](C)/C=C(\C)[C@@H](O)CC(=O)[C@H](C)C[C@H](C)/C=C/C=C/C=C/1C (stereo partly shown) [4-hydroxyprolyl-26-desmethoxy-rapamycin]
inhibitory activity in proliferation assays (cell proliferation): significantly less than that of rapamycin

SMILES: CO[C@H]1C[C@@H]2CC[C@@H](C)[C@](O)(CC(=O)N3CCCC[C@H]3C(=O)O[C@H]([C@H](C)C[C@@H]3CC[C@@H](O)[C@H](OC)C3)CC(=O)[C@H](C)/C=C(\C)[C@@H](O)[C@@H](OC)C(=O)[C@H](C)C[C@H](C)/C=C/C=C/C=C/1C)O2 [9-deoxorapamycin]
mixed lymphocyte reaction (MLR) inhibitory activity [1]: more significant decrease in activity

IC50 [11]: 13.3 µM
SMILES: CO[C@@H]1/C=C/C=C/C=C/[C@@H](C)C[C@@H](C)C(=O)[C@H](OC)[C@H](O)/C(C)=C/[C@@H](C)C(=O)C[C@@H]([C@H](C)C[C@H]2CC[C@H](O)CC2)OC(=O)[C@@H]2CCCCN2C(=O)C(=O)[C@]2(O)O[C@@H](CC[C@H]2C)C1 [17-desmethyl-39-desmethoxyrapamycin]
Test/Control (%) at drug concentration ([2]; 1 μM): 57%
Test/Control (%) at drug concentration ([2]; 10 μM): 37%
Test/Control (%) at drug concentration ([2]; 100 μM): 4%
Test/Control (%) at drug concentration ([3]; 1 μM): 85%
Test/Control (%) at drug concentration ([3]; 10 μM): 89%
Test/Control (%) at drug concentration ([3]; 100 μM): 16%
Test/Control (%) at drug concentration ([4]; 1 μM): 82%
Test/Control (%) at drug concentration ([4]; 10 μM): 76%
Test/Control (%) at drug concentration ([4]; 100 μM): 3%
Test/Control (%) at drug concentration ([5]; 1 μM): 59%
Test/Control (%) at drug concentration ([5]; 10 μM): 52%
Test/Control (%) at drug concentration ([5]; 100 μM): 8%
Test/Control (%) at drug concentration ([6]; 1 μM): 66%
Test/Control (%) at drug concentration ([6]; 10 μM): 61%
Test/Control (%) at drug concentration ([6]; 100 μM): 4%
Test/Control (%) at drug concentration ([7]; 1 μM): 84%
Test/Control (%) at drug concentration ([7]; 10 μM): 61%
Test/Control (%) at drug concentration ([7]; 100 μM): 8%
Test/Control (%) at drug concentration ([8]; 1 μM): 69%
Test/Control (%) at drug concentration ([8]; 10 μM): 66%
Test/Control (%) at drug concentration ([8]; 100 μM): 5%
Test/Control (%) at drug concentration ([9]; 1 μM): 59%
Test/Control (%) at drug concentration ([9]; 10 μM): 43%
Test/Control (%) at drug concentration ([9]; 100 μM): 15%
Test/Control (%) at drug concentration ([10]; 1 μM): 59%
Test/Control (%) at drug concentration ([10]; 10 μM): 46%
Test/Control (%) at drug concentration ([10]; 100 μM): 5%
Mean IC70 [11]: 38.2 µM

SMILES: CO[C@H]1C[C@@H]2CC[C@@H](C)[C@@](O)(O2)C(=O)C(=O)N2CCCC[C@H]2C(=O)O[C@H]([C@H](C)C[C@@H]2CC[C@@H](O)[C@H](OC)C2)CC(=O)[C@H](C)/C=C(\C)[C@@H](O)[C@@H](O)C(=O)[C@H](C)C[C@H](C)/C=C/C=C/C=C/1C [27-O-desmethylrapamycin]
antifungal activity (fungi; Box et al., 1995): lower than that of rapamycin
antifungal activities (fungi): lower than that of rapamycin
inhibition of FKBP12 PPlase activity (FKBP12 PPlase): seemed to be increased
inhibition of ConA-stimulated proliferation of murine splenic T cells (murine splenic T cells): decreased when compared to rapamycin
inhibition of LPS-stimulated proliferation of murine splenic B cells (murine splenic B cells): decreased when compared to rapamycin

SMILES: CO[C@H]1C[C@@H]2CC[C@@H](C)[C@@](O)(O2)C(=O)C(=O)N2CCCC[C@H]2C(=O)O[C@H]([C@H](C)C[C@@H]2CC[C@@H](O)[C@H](OC)C2)CC(=O)[C@H](C)/C=C(\C)[C@@H](O)CC(=O)[C@H](C)C[C@H](C)/C=C/C=C/C=C/1C [27-desmethoxyrapamycin]
antifungal activities (fungi): lower than that of rapamycin

SMILES: CO[C@H]1C[C@@H]2CC[C@@H](C)[C@@](O)(O2)C(=O)C(=O)N2CCCC[C@H]2C(=O)O[C@H]([C@H](C)C[C@@H]2CC[C@@H](O)[C@H](OC)C2)CC(=O)[C@H](C)/C=C(\C)[C@@H](O)[C@@H](OC)C(=O)[C@H](C)C[C@H](C)/C=C/C=C/C=C/1C [Rapamycin, reference compound]
Test/Control (%) at drug concentration ([4]; 10 μM): 66%
Mean IC70 [11]: 9.1 µM

SMILES: COC1CC2CCC(C)C(O)(O2)C(=O)C(=O)N2CCCC2C(=O)OC(C(C)CC2CCC(O)C(OC)C2)CC(=O)C(C)/C=C(\C)C(O)C(OC)C(=O)C(C)CC(C)/C=C/C=C/C=C/1C (stereo not shown) [prolylrapamycin]
antifungal activities (fungi): lower than that of rapamycin
